From patent US20260007684A1, “AMIDE DERIVATIVES FOR INHIBITING NLRP3 AND USES THEREOF” (Ventus Therapeutics U.S., Inc., priority 2023, published 2026)
Like-named read-outs stand apart in the source and are kept apart here.

Target: human NLRP3 (Homo sapiens (Human), UniProt Q96P20)
Test: Scintillation Proximity (SPA) NLRP3 Assay: displacement of 3H-MCC950
Type: binding
[1] = displacement of 3H-MCC950, read-out: SPA IC50
[2] = SPA IC50, displacement of 3H-MCC950

human NLRP3, sequence (Q96P20 whole entry): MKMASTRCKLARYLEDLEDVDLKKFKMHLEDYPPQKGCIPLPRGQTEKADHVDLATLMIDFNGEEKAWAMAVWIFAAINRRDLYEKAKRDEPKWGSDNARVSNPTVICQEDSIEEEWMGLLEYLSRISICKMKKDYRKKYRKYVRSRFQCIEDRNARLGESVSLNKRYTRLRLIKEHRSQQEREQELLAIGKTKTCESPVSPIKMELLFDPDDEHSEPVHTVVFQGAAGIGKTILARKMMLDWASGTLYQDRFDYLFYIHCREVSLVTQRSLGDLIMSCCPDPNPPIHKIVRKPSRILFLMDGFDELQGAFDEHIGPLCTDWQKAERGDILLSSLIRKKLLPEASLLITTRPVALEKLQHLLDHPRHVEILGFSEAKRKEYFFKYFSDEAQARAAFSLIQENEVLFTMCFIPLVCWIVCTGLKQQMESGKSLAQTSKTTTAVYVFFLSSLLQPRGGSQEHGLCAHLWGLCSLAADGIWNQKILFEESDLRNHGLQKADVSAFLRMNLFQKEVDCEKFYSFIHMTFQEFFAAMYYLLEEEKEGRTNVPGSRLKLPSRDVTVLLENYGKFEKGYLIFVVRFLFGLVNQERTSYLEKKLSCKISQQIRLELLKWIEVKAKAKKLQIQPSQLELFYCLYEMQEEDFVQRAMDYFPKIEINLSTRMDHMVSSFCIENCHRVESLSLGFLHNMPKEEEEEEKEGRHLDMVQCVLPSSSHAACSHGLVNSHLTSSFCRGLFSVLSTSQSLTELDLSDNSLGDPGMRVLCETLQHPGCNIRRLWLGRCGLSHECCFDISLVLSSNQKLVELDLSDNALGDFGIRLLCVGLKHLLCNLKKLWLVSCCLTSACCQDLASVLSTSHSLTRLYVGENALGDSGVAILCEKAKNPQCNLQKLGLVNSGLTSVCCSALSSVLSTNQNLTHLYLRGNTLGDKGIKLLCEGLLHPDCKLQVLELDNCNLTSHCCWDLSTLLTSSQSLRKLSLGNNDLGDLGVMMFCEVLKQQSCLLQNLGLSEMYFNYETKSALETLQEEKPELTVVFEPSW

## C[C@@H]1CCN(c2nnn[nH]2)C[C@@H](NC(=O)C2(c3ccc(C4CC4)cc3)CC2)C1 (single isomer, unassigned) [2B*]
[1]
  IC50: 1 to 10 µM

## C[C@H]1CCN(c2nnn[nH]2)C[C@H](NC(=O)C2(c3ccc(C4CC4)cc3)CC2)C1 (single isomer, unassigned) [2C*]
[1]
  IC50: 10 to 50 µM

## C[C@H]1CCN(c2nnn[nH]2)C[C@@H](NC(=O)C2(c3ccc(C4CC4)cc3)CC2)C1 (single isomer, unassigned) [2D*]
[1]
  IC50: 1 to 10 µM

## C[C@@H]1CCN(c2nnn[nH]2)C[C@@H](NC(=O)C2(c3ccc(OC(F)F)cc3F)CC2)C1 (single isomer, unassigned) [3B*]
[1]
  IC50: 1 to 10 µM

## C[C@H]1CCN(c2nnn[nH]2)C[C@H](NC(=O)C2(c3ccc(OC(F)F)cc3F)CC2)C1 (single isomer, unassigned) [3C*]
[1]
  IC50: > 100 µM

## C[C@H]1CCN(c2nnn[nH]2)C[C@@H](NC(=O)C2(c3ccc(OC(F)F)cc3F)CC2)C1 (single isomer, unassigned) [3D*]
[1]
  IC50: 1 to 10 µM

## C[C@@H]1CCN(c2nnn[nH]2)C[C@@H](NC(=O)C2(c3ccc(Cl)c(F)c3F)CC2)C1 (single isomer, unassigned) [4B*, 1-(4-chloro-2,3-difluorophenyl)-N-(5-methyl-1-(1H-tetrazol-5-yl)azepan-3-yl)cyclopropane-1-carboxamide]
[1]
  IC50: 10 to 50 µM

## C[C@H]1CCN(c2nnn[nH]2)C[C@H](NC(=O)C2(c3ccc(Cl)c(F)c3F)CC2)C1 (single isomer, unassigned) [4C*, 1-(4-chloro-2,3-difluorophenyl)-N-(5-methyl-1-(1H-tetrazol-5-yl)azepan-3-yl)cyclopropane-1-carboxamide]
[1]
  IC50: 50 to 100 µM

## C[C@H]1CCN(c2nnn[nH]2)C[C@@H](NC(=O)C2(c3ccc(Cl)c(F)c3F)CC2)C1 (single isomer, unassigned) [4D*, 1-(4-chloro-2,3-difluorophenyl)-N-(5-methyl-1-(1H-tetrazol-5-yl)azepan-3-yl)cyclopropane-1-carboxamide]
[1]
  IC50: 1 to 10 µM

## C[C@@H]1CCN(c2nnn[nH]2)C[C@@H](NC(=O)C2(c3ccc(C(F)F)cc3)CC2)C1 (single isomer, unassigned) [5B*, 1-(4-(difluoromethyl)phenyl)-N-(5-methyl-1-(1H-tetrazol-5-yl)azepan-3-yl)cyclopropane-1-carboxamide]
[1]
  IC50: 10 to 50 µM

## C[C@H]1CCN(c2nnn[nH]2)C[C@H](NC(=O)C2(c3ccc(C(F)F)cc3)CC2)C1 (single isomer, unassigned) [5C*, 1-(4-(difluoromethyl)phenyl)-N-(5-methyl-1-(1H-tetrazol-5-yl)azepan-3-yl)cyclopropane-1-carboxamide]
[1]
  IC50: > 100 µM

## C[C@H]1CCN(c2nnn[nH]2)C[C@@H](NC(=O)C2(c3ccc(C(F)F)cc3)CC2)C1 (single isomer, unassigned) [5D*, 1-(4-(difluoromethyl)phenyl)-N-(5-methyl-1-(1H-tetrazol-5-yl)azepan-3-yl)cyclopropane-1-carboxamide]
[1]
  IC50: 10 to 50 µM

## Cc1cc(C2(C(=O)N[C@@H]3C[C@H](C)CCN(c4nnn[nH]4)C3)CC2)ccc1C(F)(F)F (single isomer, unassigned) [6A*, N-(5-methyl-1-(1H-tetrazol-5-yl)azepan-3-yl)-1-(3-methyl-4-(trifluoromethyl)phenyl)cyclopropane-1-carboxamide]
[1]
  IC50: 1 to 10 µM

## Cc1cc(C2(C(=O)N[C@H]3C[C@H](C)CCN(c4nnn[nH]4)C3)CC2)ccc1C(F)(F)F (single isomer, unassigned) [6B*, N-(5-methyl-1-(1H-tetrazol-5-yl)azepan-3-yl)-1-(3-methyl-4-(trifluoromethyl)phenyl)cyclopropane-1-carboxamide]
[1]
  IC50: 50 to 100 µM

## Cc1cc(C2(C(=O)N[C@@H]3C[C@@H](C)CCN(c4nnn[nH]4)C3)CC2)ccc1C(F)(F)F (single isomer, unassigned) [6C*, N-(5-methyl-1-(1H-tetrazol-5-yl)azepan-3-yl)-1-(3-methyl-4-(trifluoromethyl)phenyl)cyclopropane-1-carboxamide]
[1]
  IC50: > 100 µM

## C[C@@H]1CCN(c2nnn[nH]2)C[C@@H](NC(=O)C2(c3cc(F)c(C(F)(F)F)cc3F)CC2)C1 (single isomer, unassigned) [7B*, 1-(2,5-difluoro-4-(trifluoromethyl)phenyl)-N-(5-methyl-1-(1H-tetrazol-5-yl)azepan-3-yl)cyclopropane-1-carboxamide]
[1]
  IC50: 10 to 50 µM

## C[C@H]1CCN(c2nnn[nH]2)C[C@H](NC(=O)C2(c3cc(F)c(C(F)(F)F)cc3F)CC2)C1 (single isomer, unassigned) [7C*, 1-(2,5-difluoro-4-(trifluoromethyl)phenyl)-N-(5-methyl-1-(1H-tetrazol-5-yl)azepan-3-yl)cyclopropane-1-carboxamide]
[1]
  IC50: 50 to 100 µM

## C[C@H]1CCN(c2nnn[nH]2)C[C@@H](NC(=O)C2(c3cc(F)c(C(F)(F)F)cc3F)CC2)C1 (single isomer, unassigned) [7D*, 1-(2,5-difluoro-4-(trifluoromethyl)phenyl)-N-(5-methyl-1-(1H-tetrazol-5-yl)azepan-3-yl)cyclopropane-1-carboxamide]
[1]
  IC50: 1 to 10 µM

## C[C@@H]1CCN(c2nnn[nH]2)C[C@H](NC(=O)C2(c3ccc(C4CCC4)cc3)CC2)C1 (single isomer, unassigned) [8A*, 1-(4-cyclobutylphenyl)-N-(5-methyl-1-(1H-tetrazol-5-yl)azepan-3-yl)cyclopropane-1-carboxamide]
[1]
  IC50: 1 to 10 µM

## C[C@@H]1CCN(c2nnn[nH]2)C[C@@H](NC(=O)C2(c3ccc(C4CCC4)cc3)CC2)C1 (single isomer, unassigned) [8B*, 1-(4-cyclobutylphenyl)-N-(5-methyl-1-(1H-tetrazol-5-yl)azepan-3-yl)cyclopropane-1-carboxamide]
[1]
  IC50: 10 to 50 µM

## C[C@H]1CCN(c2nnn[nH]2)C[C@H](NC(=O)C2(c3ccc(C4CCC4)cc3)CC2)C1 (single isomer, unassigned) [8C*, 1-(4-cyclobutylphenyl)-N-(5-methyl-1-(1H-tetrazol-5-yl)azepan-3-yl)cyclopropane-1-carboxamide]
[1]
  IC50: 10 to 50 µM

## C[C@H]1CCN(c2nnn[nH]2)C[C@@H](NC(=O)C2(c3ccc(C4CCC4)cc3)CC2)C1 (single isomer, unassigned) [8D*, 1-(4-cyclobutylphenyl)-N-(5-methyl-1-(1H-tetrazol-5-yl)azepan-3-yl)cyclopropane-1-carboxamide]
[1]
  IC50: 10 to 50 µM

## O=C(N[C@@H]1CCC[C@@H]2CC[C@H]1N2c1nnn[nH]1)C1(c2ccc(Cl)cc2)CC1 (single isomer, unassigned) [9A*, N-(9-(1H-tetrazol-5-yl)-9-azabicyclo[4.2.1]nonan-2-yl)-1-(4-chlorophenyl)cyclopropane-1-carboxamide]
[2]
  IC50: 1 to 10 µM

## O=C(N[C@H]1CCC[C@@H]2CC[C@H]1N2c1nnn[nH]1)C1(c2ccc(Cl)cc2)CC1 (single isomer, unassigned) [9B*, N-(9-(1H-tetrazol-5-yl)-9-azabicyclo[4.2.1]nonan-2-yl)-1-(4-chlorophenyl)cyclopropane-1-carboxamide]
[2]
  IC50: > 100 µM

## O=C(N[C@@H]1CCC[C@H]2CC[C@@H]1N2c1nnn[nH]1)C1(c2ccc(Cl)cc2)CC1 (single isomer, unassigned) [9C*, N-(9-(1H-tetrazol-5-yl)-9-azabicyclo[4.2.1]nonan-2-yl)-1-(4-chlorophenyl)cyclopropane-1-carboxamide]
[2]
  IC50: > 100 µM
